# Measured values as given in US12194081B2, “ARGINASE1 polypeptides” (IO BIOTECH APS, priority 2018, dated 2025).
# Tests used:
# Assay type in all cases: cell-based, human
# [1] = test system: PBMCs from healthy donors and cancer patients; assay: ex vivo IFNγ ELISPOT of PBMCs without prior peptide stimulation; conditions: 4 healthy donors and 2 cancer patients; FIG. 4A
# Description: (§1) For in vitro ELISPOT, PBMCs from cancer patients and healthy donors were pulsed with 20 μM of Arginase 1-derived peptides and 120 U/ml IL-2 in 24-well plates for 7 days before being used in an ELISPOT assay. The cells were placed in 96-well nitrocellulose ELISPOT plates (MultiScreen MAIP N45; Millipore) pre-coated with IFNγ capture antibody (Mabtech). Arginase peptides added to a final concentration of 5 μM and plates incubated at 37° C. for 14-16 hours. After the incubation the cells were washed off and secondary biotinylated Ab (Mabtech, cat. 3420-6-1000) was added for 2 hours at room temperature. Unbound secondary antibody was washed off and streptavidin conjugated alkaline phosphatase (AP) (Mabtech, cat. 3310-10) was added for 1 hour at room temperature. Unbound conjugated enzyme was washed off and the assay was developed by adding BCIP/NBT substrate (Mabtech, cat. 3650-10). Developed ELISPOT plates were analyzed on CTL ImmunoSpot S6 Ultimate-V analyzer using Immunospot software v5.1. Responses were reported as the difference between average numbers of spots in wells stimulated with Arginase 1 and wells without added peptide.
# PBMCs from 4 healthy donors and 2 cancer patients (1 breast cancer and 1 malignant melanoma) that had shown strong responses in in vitro ELISPOT were directly tested for responses to ArgLong2 peptide in ex vivo IFNγ ELISPOT.
# [2] = test system: CD4+ and CD8+ memory T cells (CD45RO+); assay: ex vivo IFNγ ELISPOT of sorted memory T cells
# Description: as §1
# CD4+ and CD8+ memory T cells were sorted from freshly thawed healthy donor or cancer patient PBMC samples using magnetic bead sorting kits: Memory CD4+ T Cell Isolation Kit, human (cat. 130-091-893, Miltenyi Biotec) and CD8+ Memory T Cell Isolation Kit, human (cat. 130-094-412, Miltenyi Biotec). The purity of isolated cells was assessed by staining for CD4-FITC, CD8-PerCP, CD45RO-PE (all from BD Biosciences), dead cells were stained using LIVE/DEAD™ Fixable Near-IR Dead Cell Stain Kit (Invitrogen™, ThermoFisher Scientific).
# To test that CD4+ and CD8+ memory T cells were sorted from PBMCs of cancer patients and healthy donors that had shown a strong spontaneous immune response ex vivo. […] The purity of memory T cell isolation was confirmed by flow cytometric analysis for CD4+ CD45RO+ and CD8+ CD45RO+ T cells and was determined to be >95%. […] Clear CD8+ memory responses could be detected in 2 healthy donors (see FIG. 4C).
# [3] = test system: PBMCs stimulated with IL-4, IL-13 or IL-2; assay: IFNγ ELISPOT of PBMCs pre-stimulated with Th2 cytokine (IL-4/IL-13) or IL-2
# Description: To check for IL-4 induced Arg1 responses, PBMCs were stimulated with IL-4 (100 or 50 U/ml) and/or IL-2 (120 or 60 U/ml) for a week before being set up in the ELISPOT assay as described above.
# The PBMCs were thawed and stimulated with IL-4, (50 U/ml or 100 U/ml), IL-2 (120 U/ml) or a combination of IL-4 and IL-2 (50 U/ml and 60 U/ml respectively) for one week before being tested in IFNγ ELISPOT for responses against ArgLong2. Non-stimulated cells were used as control.
# Next, PBMCs from 2 cancer patients (BC30 (breast cancer), MM27 (malignant melanoma)) and 6 healthy donors that had previously shown strong spontaneous ex vivo responses against ArgLong2 were stimulated with either low dose IL-2 (120 U/ml) or IL-4 (100 U/ml) for 7 days. Non-stimulated cells were used as control. After 7 days in culture, PBMCs were tested for reactivity against ArgLong2 in IFNγ ELISPOT.
# In a separate experiment, PBMCs from a healthy donor (HD22, known to have a pre-existing ex vivo response against ArgLong2) were treated with IL-4 (100 U/ml) or IL-13 (20 U/ml) for 7 days in order to increase presentation of the Arginase 1-derived peptides in the PBMC culture and thus stimulate the intrinsic ArgLong2 specific T cells present in the PBMCs. After 7 days of stimulation with IL-4 or IL-13, the PBMCs were analysed in IFNγ ELISPOT assay to check the changes in the frequency of the ArgLong2-specific T cells.
sequence,measurement,setting,value
"ISAKDIVYIGLRDVDPGEHYILKTLGIKYFSMTEVDRL (Peptide fragment of human Arginase 1 (ArgLong2)) [38-mer, positions 169-206 of full length human Arginase 1]",spontaneous responses in ex vivo IFNγ ELISPOT,[1],significant spontaneous responses in all 6 donors
same,cancer patients with CD4+ memory responses,"[2]; sorted CD4+ CD45RO+ T cells from 2 cancer patients, FIG. 4B",2 cancer patients
same,healthy donors with CD4+ memory responses,"[2]; sorted CD4+ CD45RO+ T cells from 4 healthy donors, FIG. 4B",3 healthy donors
same,healthy donors with clear CD8+ memory responses,"[2]; sorted CD8+ CD45RO+ T cells, FIG. 4C",2 healthy donors
same,ArgLong2 responses in IL-4 and IL-13 treated PBMC cultures,"[3]; healthy donor HD22, IL-4 100 U/ml or IL-13 20 U/ml for 7 days, vs untreated control, FIG. 10",Increased ArgLong2 responses
same,cultures with increased responses in IL-4 stimulated cultures,"[3]; out of 8 cultures (2 cancer patients, 6 healthy donors), IL-4 100 U/ml for 7 days vs unstimulated and IL-2 stimulated controls, FIG. 5B",6 cultures
same,responses against ArgLong2 after IL-4 stimulation of PBMCs,"[3]; single melanoma patient, IL-4 50 or 100 U/ml, IL-2 120 U/ml or IL-4+IL-2 for one week, compared with no stimulation or IL-2 alone, FIG. 5A",Strong significant responses were seen in all IL-4 stimulated groups
